Data: patent publication US20250302833A1, “PHARMACEUTICAL COMPOSITION FOR TREATING OR PREVENTING CYSTIC DISEASE” (CHUGAI SEIYAKU KABUSHIKI KAISHA, priority 2022, published 2025)

Legend:
[1] = test system: PC1 conditional knockout mice (PKD model); test: Suppression of increase in renal volume and decrease in renal function in PC1 conditional knockout mice; format: in vivo, mouse
Description: The PC1 conditional knockout mice, a PKD model, were used to evaluate the effects of tolvaptan and compound 4 in Test Example 1 on (a) renal volume, (b) body weight, and (c) urine volume in PC1 conditional knockout mouse.
Tamoxifen was orally administered to PC1 conditional knockout mice at a dose of 3 mg/kg for 3 days from day 21 after birth. The PC1 conditional knockout mice (5 weeks of age at the start of this test) were grouped into 3 groups of 15 mice each. Compound 4 or tolvaptan was administered as a single agent to the test compound administration group. The administration period was 16 weeks, and they were administered subcutaneously once daily. Compound 4 was administered at 33-40 mg/kg per dose and tolvaptan was administered at 25-30 mg/kg per dose. Compound 4 and tolvaptan were administered after dissolved in 50% DMSO/50% glycerol. A group of mice to which tamoxifen was not administered was provided as a normal control group (Normal Control) (N=7). The 50% DMSO/50% glycerol was administered to the normal control group and the Vehicle group of PC1 conditional knockout mice at 1 mL/kg.
The left renal volume (renal volume (mL)) of mice was calculated by the following formula using echography 16 weeks after the start of administration of the test compound.
After that, euthanasia treatment was performed. In addition, the body weight (Body weight (g)) of mice was measured every 7 days after the start of administration of the test compound. Furthermore, the volume of urine (Urine volume (mL/day)) was calculated from the specific gravity and measured weight of urine 16 weeks after the start of administration of the test compound.

[2] = test system: primary cells from kidney tissues of human ADPKD patients; test: Inhibition of three-dimensional cyst formation using primary cells from kidney tissue of human ADPKD patient; format: cell-based; conditions: 168 h, test compound 30 μM, forskolin + ITS stimulation, 7 days 3D culture, average N=3, read-out: Inhibition rate (%) of cyst formation
Description: Primary cells were isolated from kidney tissues of human ADPKD patients. Under two-dimensions, the isolated cells were cultured for 2 days using DMEM/F-12 (Thermo Fisher Scientific, Inc.) supplemented with 10% FBS. Subsequently, three-dimensional culture was performed for 7 days using 3D Ready Atelocollagen (KOKEN CO., LTD.). During three-dimensional culture, 50 µM forskolin (Sigma-Aldrich Co. LLC) and ITS liquid media supplements (Sigma-Aldrich Co. LLC) were added as stimulating agents to some of the wells to form cysts, and a test compound was added at the final concentration of 30 μM. The test compound was also added to other wells at the final concentration of 30 μM. After 7 days of three-dimensional culture, it was fixed with 4% paraformaldehyde (Thermo Fisher Scientific, Inc.), and nucleic acid staining and cell membrane staining were performed with Hoechst 33342 (Thermo Fisher Scientific, Inc.) and CellLight Plasma Membrane-RFP, BacMam 2.0 (Thermo Fisher Scientific, Inc.). Three-dimensional imaging and volume analysis were performed using Operetta CLS and image analysis software Harmony (PerkinElmer Japan G.K.). The inhibition rate was determined by the following formula.

[3] = molecular target: T1, human NaPi-IIb (Homo sapiens, UniProt O95436); test: 33PO4 uptake inhibition in CHO cells expressing human NaPi-IIb; format: cell-based; conditions: CHO cells transiently expressing human NaPi-IIb, pH 6.5
T1 construct: expressed in transfected cells; host or cells: CHO cells, transient transfection with Fugene HD
T1 sequence (O95436 1-690): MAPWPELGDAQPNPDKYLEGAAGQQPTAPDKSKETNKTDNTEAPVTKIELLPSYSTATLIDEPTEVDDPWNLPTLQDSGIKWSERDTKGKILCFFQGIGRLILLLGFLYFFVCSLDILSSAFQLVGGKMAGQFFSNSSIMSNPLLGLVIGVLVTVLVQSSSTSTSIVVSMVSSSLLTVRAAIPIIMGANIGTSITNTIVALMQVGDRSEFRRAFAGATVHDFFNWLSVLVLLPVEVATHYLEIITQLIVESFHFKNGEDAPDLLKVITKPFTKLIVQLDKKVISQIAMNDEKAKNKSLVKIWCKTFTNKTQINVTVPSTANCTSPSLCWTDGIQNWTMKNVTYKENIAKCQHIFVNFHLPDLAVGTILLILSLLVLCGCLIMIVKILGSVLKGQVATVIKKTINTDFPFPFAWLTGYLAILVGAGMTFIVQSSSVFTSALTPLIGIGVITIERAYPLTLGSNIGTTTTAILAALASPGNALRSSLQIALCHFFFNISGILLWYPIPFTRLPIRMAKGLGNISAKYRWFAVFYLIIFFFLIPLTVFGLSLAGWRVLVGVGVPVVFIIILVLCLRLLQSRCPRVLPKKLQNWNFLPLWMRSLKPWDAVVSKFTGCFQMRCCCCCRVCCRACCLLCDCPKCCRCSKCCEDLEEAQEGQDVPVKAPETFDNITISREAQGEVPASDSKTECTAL
Description: For transient expression, human NaPi-IIb expression plasmids, human PiT1 expression plasmids, human PiT2 expression plasmids, and Fugene HD Transfection (Promega Corporation) were added to CHO cells using a 96-well plate, and the plate was incubated in a C02 incubator for 16 hours. The medium was replaced with buffer A (145 mM choline chloride, 3 mM KCl, 1 mM CaCl2), 0.5 mM MgCl2, 5 mM glucose, 5 mM MES, (pH 6.5)), and then replaced with buffer B (145 mM NaCl, 3 mM KCl, 1 mM CaCl2, 0.5 mM MgCl2, 5 mM glucose, 5 mM MES (pH 6.5)) to which a test compound was added at the final concentration of 0.01, 0.03, 0.1, 0.3, 1, 3, 10, or 30 μM, buffer A to which DMSO was added, or buffer B to which DMSO was added. After a certain time, a 1/20 amount of buffer A containing ^33PO4 (PerkinElmer Japan G. K.) was added and reacted at room temperature. After washing with ice-cooled buffer A, a liquid scintillator (MicroScint™-20, item number 6013621, PerkinElmer Japan G.K.) was added, and the ^33PO4 uptake amount was measured with the top count (Top Count NXT, PerkinElmer Japan G.K.). The inhibition rate was determined by the following formula. Here, a certain time was set to 10 minutes. The phrase “a 1/20 amount of buffer A containing ^33PO4 (PerkinElmer Japan G.K.) was added” refers to “buffer A containing ^33PO4 (PerkinElmer Japan G.K.) was added in an amount of 1/20 of the amount of solution filling the medium”.
The 50% ^33PO4-uptake inhibition concentrations (ICs) (UM) in a cell expressing human NaPi-Ilb, human PiT1, and human PiT2 were calculated from a straight line through two points sandwiching 50% inhibition rate. It should be noted that compounds 1 and 2 were not measured for baman PiT1 and human PiT2, which was indicated as “-” in Table 1.

- Urine volume ([1]; 16 weeks after start of administration, compared to tolvaptan): no increase in urine volume
- IC50 [3]: 31 nM
SMILES: CCCN([C@H]1CC[C@H](C(=O)[O-])CC1)S(=O)(=O)c1cccc(C(=O)Nc2sc3c(c2C(=O)Nc2ccc(CCCc4ccc(C(=O)[O-])cc4)cc2)CCCC3)c1.[Na+].[Na+] [Compound 4, Disodium; 4-[3-[4-[[2-[[3-[(4-carboxylatocyclohexyl)-propylsulfamoyl]benzoyl]ami-no]-4,5,6,7-tetrahydro-1-benzothiophene-3-carbonyl]amino]phenyl]pro-pyl]benzoic acid]
- Body weight (weight loss) ([1]; 16 weeks administration, compared to tolvaptan): less weight loss
- Suppression effect on decrease in renal function ([1]; 33-40 mg/kg s.c. once daily, 16 weeks): suppression effect
- Suppression effect on increase in renal volume ([1]; 33-40 mg/kg s.c. once daily, 16 weeks, left renal volume by echography): suppression effect
- inhibition at 30 µM [2]: 94.4%
